The source made the active and inactive calls. No cut-off for these calls is given here.
What was measured:
[1] = tested on: Hepatocyte; assay: Hepatoprotective activity against D-galactosamine/TNFalpha-induced cell death in primary cultured mouse hepatocytes treated for 30 mins before TNFalpha challenge measured after 18 hrs by MTT assay; type: functional, cell-based
[2] = tested on: Hepatocyte; assay: Hepatoprotective activity against D-galactosamine/TNFalpha-induced cell death in primary cultured mouse hepatocytes assessed as cell viability at 25 uM treated for 30 mins before TNFalpha challenge measured after 18 hrs by MTT assay relative to normal hepatocytes; type: functional; conditions: read-out: Activity
[3] = tested on: Hepatocyte; assay: Hepatoprotective activity against D-galactosamine/TNFalpha-induced cell death in primary cultured mouse hepatocytes at 25 uM treated for 30 mins before TNFalpha challenge measured after 18 hrs by MTT assay relative to control; type: functional
[4] = tested on: Hepatocyte; assay: Hepatoprotective activity against D-galactosamine/TNFalpha-induced cell death in primary cultured mouse hepatocytes at 50 uM treated for 30 mins before TNFalpha challenge measured after 18 hrs by MTT assay relative to control; type: functional
[5] = tested on: Hepatocyte; assay: Hepatoprotective activity against D-galactosamine/TNFalpha-induced cell death in primary cultured mouse hepatocytes assessed as cell viability at 50 uM treated for 30 mins before TNFalpha challenge measured after 18 hrs by MTT assay relative to normal hepatocytes; type: functional; conditions: read-out: Activity
[6] = tested on: Hepatocyte; assay: Hepatoprotective activity against D-galactosamine/TNFalpha-induced cell death in primary cultured mouse hepatocytes assessed as cell viability at 100 uM treated for 30 mins before TNFalpha challenge measured after 18 hrs by MTT assay relative to normal hepatocytes; type: functional; conditions: read-out: Activity
[7] = tested on: Hepatocyte; assay: Hepatoprotective activity against D-galactosamine/TNFalpha-induced cell death in primary cultured mouse hepatocytes at 100 uM treated for 30 mins before TNFalpha challenge measured after 18 hrs by MTT assay relative to control; type: functional

Row | Compound | Activity [1] | viability at 25 µM [2] [%] | inhibition at 25 µM [3] [%] | inhibition at 50 µM [4] [%] | viability at 50 µM [5] [%] | IC50 [1] [µM] | viability at 100 µM [6] [%] | inhibition at 100 µM [7] [%]
1 | C=C(C)[C@@H]1CC[C@]2(C(=O)O[C@@H]3O[C@H](CO)[C@@H](O)[C@H](O)[C@H]3O)CC[C@]3(C)[C@H](CC[C@@H]4[C@@]5(C)C[C@@H](O)[C@H](O)C(C)(C)[C@@H]5[C@H](O)C[C@]43C)[C@@H]12 | Active |  |  |  |  |  |  | 
2 | C[C@@H]1CC[C@]2(C(=O)O[C@@H]3O[C@H](CO)[C@@H](O)[C@H](O)[C@H]3O)CC[C@]3(C)C(=CC[C@@H]4[C@@]5(C)C[C@@H](O)[C@H](O)[C@@](C)(CO)[C@@H]5CC[C@]43C)[C@@H]2[C@]1(C)O | inactive |  |  |  |  |  |  | 
3 | C=C(C)[C@@H]1CC[C@]2(C(=O)O)CC[C@]3(C)[C@H](CC[C@@H]4[C@@]5(C)C[C@@H](O)[C@H](O)C(C)(C)[C@@H]5[C@H](O)C[C@]43C)[C@@H]12 |  | 22.2 | 5.9 | 35.8 | 28.4 | 60.9 | 47.6 | 128
4 | C=C(C)[C@@H]1CC[C@]2(C(=O)O)CC[C@]3(C)[C@H](CC[C@@H]4[C@@]5(C)C[C@@H](O)[C@H](O)[C@@](C)(CO)[C@@H]5[C@H](O)C[C@]43C)[C@@H]12 |  | 28.6 | 36.4 | 46.2 | 30.6 | 51.2 | 36 | 71.7
5 | C[C@H]1[C@H](C)CC[C@]2(C(=O)O[C@@H]3O[C@H](CO)[C@@H](O)[C@H](O)[C@H]3O)CC[C@]3(C)C(=CC[C@@H]4[C@@]5(C)C[C@@H](O)[C@H](O)[C@@](C)(CO)[C@@H]5CC[C@]43C)[C@H]12 | inactive |  |  |  |  |  |  | 
6 | CC1(C)[C@@H](O[C@H]2O[C@H](C(=O)O)[C@@H](O)[C@H](O)[C@H]2O[C@@H]2O[C@H](C(=O)O)[C@@H](O)[C@H](O)[C@H]2O)CC[C@]2(C)[C@H]3C(=O)C=C4[C@@H]5C[C@@](C)(C(=O)O)CC[C@]5(C)CC[C@@]4(C)[C@]3(C)CC[C@@H]12 [GLYCYRRHIZIN] |  |  |  |  |  | > 200 |  | 
7 | CC1=C2C3=CC[C@@H]4[C@@]5(C)C[C@@H](O)[C@H](O)[C@@](C)(CO)[C@@H]5[C@H](O)C[C@@]4(C)[C@]3(C)CC[C@@]2(C(=O)O[C@@H]2O[C@H](CO)[C@@H](O)[C@H](O)[C@H]2O)CC[C@H]1C | Active |  |  |  |  |  |  | 
8 | C=C(C)[C@@H]1CC[C@]2(C(=O)O[C@@H]3O[C@H](CO)[C@@H](O)[C@H](O)[C@H]3O)CC[C@]3(C)[C@H](CC[C@@H]4[C@@]5(C)C[C@@H](O)[C@H](O)[C@@](C)(CO)[C@@H]5[C@H](O)C[C@]43C)[C@@H]12 | Active |  |  |  |  |  |  | 
9 | CC1=C2C3=CC[C@@H]4[C@@]5(C)C[C@@H](O)[C@H](O)[C@@](C)(CO)[C@@H]5CC[C@@]4(C)[C@]3(C)CC[C@@]2(C(=O)O)CC[C@H]1C |  | 29.4 | 40.6 | 47.4 | 30.8 | 51 | 51.5 | 150
10 | CC1(C)CC[C@]2(C(=O)O)CC[C@]3(C)C(=CC[C@@H]4[C@@]5(C)C[C@@H](O)[C@H](O)C(C)(C)[C@@H]5CC[C@]43C)[C@@H]2[C@@H]1O [ARJUNIC ACID] |  | 26.5 | 26.7 | 27 | 26.6 |  | 27.8 | 32.9
11 | C[C@@H]1CC[C@]2(C(=O)O)CC[C@]3(C)C(=CC[C@@H]4[C@@]5(C)C[C@@H](O)[C@H](O)[C@@](C)(CO)[C@@H]5CC[C@]43C)[C@@H]2[C@]1(C)O | inactive |  |  |  |  |  |  | 
12 | CC1(C)CC[C@]2(C(=O)O)CC[C@]3(C)C(=CC[C@@H]4[C@@]5(C)C[C@@H](O)[C@H](O)C(C)(C)[C@@H]5[C@H](O)C[C@]43C)[C@@H]2[C@@H]1O |  | 24.2 | 15.4 | 18 | 24.7 |  | 26.1 | 24.4
13 | COc1cc(C2Oc3cc([C@H]4Oc5cc(O)cc(O)c5C(=O)[C@@H]4O)ccc3OC2CO)ccc1O (stereo not given in full) [SILIBININ] |  | 30.2 | 44.9 | 68.2 | 35.1 | 29.9 | 47.9 | 129
14 | CC[C@H](CC[C@@H](C)[C@H]1CC[C@H]2[C@@H]3CC=C4C[C@@H](O)CC[C@]4(C)[C@H]3CC[C@]12C)C(C)C [BETA-SITOSTEROL] |  | 24.3 | 17.7 | 28.1 | 26.4 |  | 27.3 | 32.5
15 | CC1(C)CC[C@]2(C(=O)O)CC[C@]3(C)C(=CC[C@@H]4[C@@]5(C)C[C@@H](O)[C@H](O)[C@@](C)(CO)[C@@H]5CC[C@]43C)[C@@H]2C1 [ARJUNOLIC ACID] |  | 24.9 | 19.1 | 33.8 | 28 | 58.4 | 43.6 | 108
